Test results published in the CheMixHub viscosity set.
Several values for one entry are separate records, joined by “and”; a condition that tells them apart may be missing. Equal entries are not always repeated. ± gives the uncertainty stated by the source.

Test: xn = mol fraction of the nth substance listed

CC(C)O + O
Conditions | viscosity
308.15 K, 101 kPa, x2 = 0.26 | 1.616 ± 0.017 mPa·s
308.15 K, 101 kPa, x2 = 0.4678 | 1.856 ± 0.02 mPa·s
308.15 K, 101 kPa, x2 = 0.6079 | 2.072 ± 0.023 mPa·s
308.15 K, 101 kPa, x2 = 0.685 | 2.169 ± 0.024 mPa·s
308.15 K, 101 kPa, x2 = 0.7249 | 2.178 ± 0.024 mPa·s
308.15 K, 101 kPa, x2 = 0.805 | 2.088 ± 0.023 mPa·s
308.15 K, 101 kPa, x2 = 0.89 | 1.675 ± 0.019 mPa·s
308.15 K, 101 kPa, x2 = 0.9549 | 1.23 ± 0.013 mPa·s
313.15 K, 101 kPa, x1 = 0.01 | 0.733 ± 0.005 mPa·s
313.15 K, 101 kPa, x1 = 0.02 | 0.823 ± 0.006 mPa·s
313.15 K, 101 kPa, x1 = 0.032 | 0.933 ± 0.03 mPa·s
313.15 K, 101 kPa, x1 = 0.05 | 1.098 ± 0.008 mPa·s
313.15 K, 101 kPa, x1 = 0.07069 | 1.27 ± 0.009 mPa·s
313.15 K, 101 kPa, x1 = 0.1 | 1.458 ± 0.01 mPa·s
313.15 K, 101 kPa, x1 = 0.11 | 1.495 ± 0.046 mPa·s
313.15 K, 101 kPa, x1 = 0.2 | 1.789 ± 0.012 mPa·s
313.15 K, 101 kPa, x1 = 0.23 | 1.821 ± 0.056 mPa·s
313.15 K, 101 kPa, x1 = 0.41 | 1.731 ± 0.054 mPa·s
313.15 K, 101 kPa, x2 = 0.1049 | 1.365 ± 0.015 mPa·s
313.15 K, 101 kPa, x2 = 0.26 | 1.412 ± 0.015 mPa·s
313.15 K, 101 kPa, x2 = 0.4678 | 1.604 ± 0.017 mPa·s
313.15 K, 101 kPa, x2 = 0.6079 | 1.788 ± 0.019 mPa·s
313.15 K, 101 kPa, x2 = 0.685 | 1.855 ± 0.02 mPa·s
313.15 K, 101 kPa, x2 = 0.7249 | 1.858 ± 0.02 mPa·s
313.15 K, 101 kPa, x2 = 0.805 | 1.781 ± 0.019 mPa·s
313.15 K, 101 kPa, x2 = 0.89 | 1.447 ± 0.016 mPa·s
313.15 K, 101 kPa, x2 = 0.9549 | 1.076 ± 0.012 mPa·s
313.15 K, 101.33 kPa, x1 = 0.015 | 0.7848 ± 0.026 mPa·s
313.15 K, 101.33 kPa, x1 = 0.05 | 1.113 ± 0.029 mPa·s
313.15 K, 101.33 kPa, x1 = 0.075 | 1.292 ± 0.033 mPa·s
313.15 K, 101.33 kPa, x1 = 0.1 | 1.453 ± 0.037 mPa·s
313.15 K, 101.33 kPa, x1 = 0.15 | 1.665 ± 0.043 mPa·s
313.15 K, 101.33 kPa, x1 = 0.2 | 1.777 ± 0.046 mPa·s
313.15 K, 101.33 kPa, x1 = 0.25 | 1.823 ± 0.047 mPa·s
313.15 K, 101.33 kPa, x1 = 0.3 | 1.822 ± 0.047 mPa·s
313.15 K, 101.33 kPa, x1 = 0.4 | 1.756 ± 0.045 mPa·s
313.15 K, 101.33 kPa, x1 = 0.5 | 1.649 ± 0.042 mPa·s
313.15 K, 101.33 kPa, x1 = 0.6 | 1.539 ± 0.04 mPa·s
313.15 K, 101.33 kPa, x1 = 0.7 | 1.446 ± 0.037 mPa·s
313.15 K, 101.33 kPa, x1 = 0.8 | 1.375 ± 0.035 mPa·s
313.15 K, 101.33 kPa, x1 = 0.85 | 1.35 ± 0.035 mPa·s
313.15 K, 101.33 kPa, x1 = 0.9 | 1.327 ± 0.034 mPa·s
313.15 K, 101.33 kPa, x1 = 0.925 | 1.331 ± 0.034 mPa·s
313.15 K, 101.33 kPa, x1 = 0.95 | 1.332 ± 0.034 mPa·s
313.15 K, 101.33 kPa, x1 = 0.975 | 1.336 ± 0.034 mPa·s
318.15 K, 101 kPa, x1 = 0.01 | 0.664 ± 0.005 mPa·s
318.15 K, 101 kPa, x1 = 0.02 | 0.739 ± 0.005 mPa·s
318.15 K, 101 kPa, x1 = 0.032 | 0.836 ± 0.028 mPa·s
318.15 K, 101 kPa, x1 = 0.05 | 0.966 ± 0.007 mPa·s
318.15 K, 101 kPa, x1 = 0.07069 | 1.103 ± 0.008 mPa·s
318.15 K, 101 kPa, x1 = 0.1 | 1.261 ± 0.009 mPa·s
318.15 K, 101 kPa, x1 = 0.11 | 1.315 ± 0.042 mPa·s
318.15 K, 101 kPa, x1 = 0.2 | 1.539 ± 0.01 mPa·s
318.15 K, 101 kPa, x1 = 0.23 | 1.579 ± 0.05 mPa·s
318.15 K, 101 kPa, x1 = 0.41 | 1.484 ± 0.047 mPa·s
318.15 K, 101 kPa, x2 = 0.1049 | 1.182 ± 0.013 mPa·s
318.15 K, 101 kPa, x2 = 0.26 | 1.237 ± 0.013 mPa·s
318.15 K, 101 kPa, x2 = 0.4678 | 1.397 ± 0.015 mPa·s
318.15 K, 101 kPa, x2 = 0.6079 | 1.561 ± 0.017 mPa·s
318.15 K, 101 kPa, x2 = 0.685 | 1.604 ± 0.018 mPa·s
318.15 K, 101 kPa, x2 = 0.7249 | 1.598 ± 0.018 mPa·s
318.15 K, 101 kPa, x2 = 0.805 | 1.539 ± 0.019 mPa·s
318.15 K, 101 kPa, x2 = 0.89 | 1.255 ± 0.015 mPa·s
318.15 K, 101 kPa, x2 = 0.9549 | 0.95 ± 0.012 mPa·s
323.15 K, 100 kPa, x1 = 0.2 | 1.375 ± 0.0041 mPa·s and 1.3 ± 0.0039 mPa·s
323.15 K, 100 kPa, x1 = 0.3 | 1.387 ± 0.0042 mPa·s
323.15 K, 100 kPa, x2 = 0.1 | 1.03 ± 0.026 mPa·s
323.15 K, 100 kPa, x2 = 0.2 | 1.08 ± 0.027 mPa·s
323.15 K, 100 kPa, x2 = 0.3 | 1.11 ± 0.028 mPa·s
323.15 K, 100 kPa, x2 = 0.4 | 1.21 ± 0.031 mPa·s
323.15 K, 100 kPa, x2 = 0.5 | 1.26 ± 0.033 mPa·s
323.15 K, 100 kPa, x2 = 0.6 | 1.37 ± 0.035 mPa·s
323.15 K, 100 kPa, x2 = 0.7 | 1.37 ± 0.036 mPa·s
323.15 K, 100 kPa, x2 = 0.8 | 1.37 ± 0.035 mPa·s
323.15 K, 100 kPa, x2 = 0.9 | 1.14 ± 0.029 mPa·s
323.15 K, 101 kPa, x1 = 0.01 | 0.604 ± 0.004 mPa·s
323.15 K, 101 kPa, x1 = 0.02 | 0.668 ± 0.005 mPa·s
323.15 K, 101 kPa, x1 = 0.05 | 0.856 ± 0.006 mPa·s
323.15 K, 101 kPa, x1 = 0.07069 | 0.969 ± 0.007 mPa·s
323.15 K, 101 kPa, x1 = 0.1 | 1.101 ± 0.008 mPa·s
